According to PubChem BioAssay (NCI):
Where “and” joins values, the source holds several entries; their conditions need not be identical. Equal values may be shown once.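 Tested at 5 concentrations; 48 h exposure; 96-well plates; endpoints linearly interpolated, else capped at highest concentration. GI50 marks 50% less growth. The concentration for full growth arrest is given as TGI.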

Assays:
Experiment in all cases: inhibition of tumour cell growth, NCI panel, 48 h
SK-MEL-28 melanoma = tested on: SK-MEL-28 melanoma
KM12 colon = tested on: KM12 colon
UACC-257 melanoma = tested on: UACC-257 melanoma
BT-549 breast = tested on: BT-549 breast
MALME-3M melanoma = tested on: MALME-3M melanoma
IGROV1 ovarian = tested on: IGROV1 ovarian
SNB-75 CNS = tested on: SNB-75 CNS
CCRF-CEM leukemia = tested on: CCRF-CEM leukemia
OVCAR-4 ovarian = tested on: OVCAR-4 ovarian
UO-31 renal = tested on: UO-31 renal
RXF 393 renal = tested on: RXF 393 renal
HCC-2998 colon = tested on: HCC-2998 colon
OVCAR-3 ovarian = tested on: OVCAR-3 ovarian
HL-60(TB) leukemia = tested on: HL-60(TB) leukemia
UACC-62 melanoma = tested on: UACC-62 melanoma
HOP-62 NSCLC = tested on: HOP-62 NSCLC
EKVX NSCLC = tested on: EKVX NSCLC
HOP-92 NSCLC = tested on: HOP-92 NSCLC
U251 CNS = tested on: U251 CNS
COLO 205 colon = tested on: COLO 205 colon
SF-268 CNS = tested on: SF-268 CNS
A498 renal = tested on: A498 renal
RPMI-8226 leukemia = tested on: RPMI-8226 leukemia
NCI-H23 lung = tested on: NCI-H23 lung
NCI-H226 lung = tested on: NCI-H226 lung
SK-OV-3 ovarian = tested on: SK-OV-3 ovarian
SNB-19 CNS = tested on: SNB-19 CNS
MCF7 breast = tested on: MCF7 breast
SK-MEL-2 melanoma = tested on: SK-MEL-2 melanoma
T-47D breast = tested on: T-47D breast
MDA-MB-231 breast = tested on: MDA-MB-231 breast
SF-295 CNS = tested on: SF-295 CNS
786-0 renal = tested on: 786-0 renal
ACHN renal = tested on: ACHN renal
MDA-MB-435 = tested on: MDA-MB-435
OVCAR-8 ovarian = tested on: OVCAR-8 ovarian
MOLT-4 leukemia = tested on: MOLT-4 leukemia
TK-10 renal = tested on: TK-10 renal
SK-MEL-5 melanoma = tested on: SK-MEL-5 melanoma
NCI-H522 lung = tested on: NCI-H522 lung
PC-3 prostate = tested on: PC-3 prostate
SN12C renal = tested on: SN12C renal
HT29 colon = tested on: HT29 colon
NCI/ADR-RES ovarian = tested on: NCI/ADR-RES ovarian
HS 578T breast = tested on: HS 578T breast
HCT-15 colon = tested on: HCT-15 colon
SF-539 CNS = tested on: SF-539 CNS
M14 melanoma = tested on: M14 melanoma
NCI-H460 lung = tested on: NCI-H460 lung
DU-145 prostate = tested on: DU-145 prostate
SW-620 colon = tested on: SW-620 colon
OVCAR-5 ovarian = tested on: OVCAR-5 ovarian
A549 NSCLC = tested on: A549 NSCLC
HCT-116 colon = tested on: HCT-116 colon
MDA-N = tested on: MDA-N
CAKI-1 renal = tested on: CAKI-1 renal
LOX IMVI melanoma = tested on: LOX IMVI melanoma
K-562 leukemia = tested on: K-562 leukemia

Compound `COc1cc2c(cc1OC)C1C(O)C(OC)C(Br)C3(Br)CCN(C2)C13` (stereo not given) has a TGI (SK-MEL-28 melanoma) greater than 100 µM, a TGI (KM12 colon) greater than 100 µM and a TGI (UACC-257 melanoma) greater than 100 µM. It also gave a TGI (BT-549 breast) greater than 100 µM, a TGI (MALME-3M melanoma) greater than 100 µM and a TGI (IGROV1 ovarian) greater than 100 µM. It also gave a TGI (SNB-75 CNS) greater than 100 µM, a TGI (CCRF-CEM leukemia) greater than 100 µM and a TGI (OVCAR-4 ovarian) greater than 100 µM. It also gave a TGI (UO-31 renal) greater than 100 µM, a TGI (RXF 393 renal) greater than 100 µM and a TGI (HCC-2998 colon) greater than 100 µM. For the same compound, the TGI (OVCAR-3 ovarian) was greater than 100 µM, the TGI (HL-60(TB) leukemia) was greater than 100 µM and the TGI (UACC-62 melanoma) was greater than 100 µM. It also gave a TGI (HOP-62 NSCLC) greater than 100 µM, a TGI (EKVX NSCLC) greater than 100 µM and a TGI (HOP-92 NSCLC) greater than 100 µM. It also gave a TGI (U251 CNS) greater than 100 µM, a TGI (COLO 205 colon) greater than 100 µM and a TGI (SF-268 CNS) greater than 100 µM. It also gave a TGI (A498 renal) greater than 100 µM, a TGI (RPMI-8226 leukemia) greater than 100 µM and a TGI (NCI-H23 lung) greater than 100 µM. For the same compound, the TGI (NCI-H226 lung) was greater than 100 µM, the TGI (SK-OV-3 ovarian) was greater than 100 µM and the TGI (SNB-19 CNS) was greater than 100 µM. For the same compound, the TGI (MCF7 breast) was greater than 100 µM, the TGI (SK-MEL-2 melanoma) was greater than 100 µM and the TGI (T-47D breast) was greater than 100 µM. The TGI (MDA-MB-231 breast) was greater than 100 µM, the TGI (SF-295 CNS) was greater than 100 µM and the TGI (786-0 renal) was greater than 100 µM. For the same compound, the TGI (ACHN renal) was greater than 100 µM, the TGI (MDA-MB-435) was greater than 100 µM and the TGI (OVCAR-8 ovarian) was greater than 100 µM. It also gave a TGI (MOLT-4 leukemia) greater than 100 µM, a TGI (TK-10 renal) greater than 100 µM and a TGI (SK-MEL-5 melanoma) greater than 100 µM. It also gave a TGI (NCI-H522 lung) greater than 100 µM, a TGI (PC-3 prostate) greater than 100 µM and a TGI (SN12C renal) greater than 100 µM. It also gave a TGI (HT29 colon) greater than 100 µM, a TGI (NCI/ADR-RES ovarian) greater than 100 µM and a TGI (HS 578T breast) greater than 100 µM. The TGI (HCT-15 colon) was greater than 100 µM, the TGI (SF-539 CNS) was greater than 100 µM and the TGI (M14 melanoma) was greater than 100 µM. It also gave a TGI (NCI-H460 lung) greater than 100 µM, a TGI (DU-145 prostate) greater than 100 µM and a TGI (SW-620 colon) greater than 100 µM. The TGI (OVCAR-5 ovarian) was greater than 100 µM, the TGI (A549 NSCLC) was greater than 100 µM and the TGI (HCT-116 colon) was greater than 100 µM. It also gave a TGI (MDA-N) greater than 100 µM and a TGI (CAKI-1 renal) greater than 100 µM.
With `COC(=O)[C@H](Cc1ccccc1)NC(=O)[C@H](Cc1ccccc1)NC(=O)CN1C(=O)[C@@H]2C3C=CC(C3)[C@@H]2C1=O` the TGI (SK-MEL-28 melanoma) was 35 µM and 35.7 µM, the TGI (KM12 colon) was 33.9 µM and 41.7 µM and the TGI (LOX IMVI melanoma) was 33.3 µM and 32.2 µM. For the same compound, the TGI (UACC-257 melanoma) was 30.9 µM and 33.6 µM, the TGI (BT-549 breast) was 32.1 µM and 30.2 µM and the TGI (IGROV1 ovarian) was 25.5 µM and 30.4 µM. For the same compound, the TGI (SNB-75 CNS) was 34 µM and 33.7 µM, the GI50 (CCRF-CEM leukemia) was 7.9 µM and 19.9 µM and the TGI (CCRF-CEM leukemia) was 39.1 µM and 57.3 µM. For the same compound, the TGI (OVCAR-4 ovarian) was 31.2 µM and 37.5 µM, the TGI (UO-31 renal) was 42.3 µM and 32.1 µM and the TGI (RXF 393 renal) was 36.2 µM and 35 µM. The TGI (HCC-2998 colon) was 30.8 µM and 31 µM, the TGI (OVCAR-3 ovarian) was 33.1 µM and 37 µM and the TGI (HL-60(TB) leukemia) was 40.8 µM and 33.5 µM. The TGI (UACC-62 melanoma) was 30 µM and 30.2 µM, the TGI (HOP-62 NSCLC) was 38.5 µM and 39.8 µM and the TGI (EKVX NSCLC) was 35.1 µM and 37.3 µM. For the same compound, the TGI (HOP-92 NSCLC) was 33.3 µM and 36.1 µM, the TGI (U251 CNS) was 30 µM and 33.2 µM and the TGI (COLO 205 colon) was 29.7 µM and 30.9 µM. For the same compound, the TGI (SF-268 CNS) was 26.3 µM and 31.5 µM, the TGI (A498 renal) was 31.3 µM and 53 µM and the TGI (RPMI-8226 leukemia) was 38.3 µM and 52 µM. The TGI (NCI-H23 lung) was 32.1 µM and 33 µM, the TGI (NCI-H226 lung) was 38.5 µM and 39.1 µM and the TGI (SK-OV-3 ovarian) was 31.7 µM. For the same compound, the TGI (SNB-19 CNS) was 36.6 µM and 39.9 µM, the TGI (MCF7 breast) was 34.1 µM and 31.7 µM and the TGI (SK-MEL-2 melanoma) was 33 µM and 34.5 µM. For the same compound, the TGI (T-47D breast) was 47.2 µM and 49 µM, the TGI (MDA-MB-231 breast) was 31.5 µM and 32.4 µM and the TGI (SF-295 CNS) was 35.5 µM and 36.6 µM. The TGI (786-0 renal) was 27.2 µM and 28.8 µM, the TGI (ACHN renal) was 29.7 µM and 30.4 µM and the TGI (MDA-MB-435) was 28.7 µM and 32 µM. For the same compound, the TGI (OVCAR-8 ovarian) was 27.9 µM and 33.8 µM, the GI50 (K-562 leukemia) was 7.26 µM and 17.5 µM and the TGI (K-562 leukemia) was 36.2 µM and 42.2 µM. For the same compound, the TGI (MOLT-4 leukemia) was 5.2 µM and 8.67 µM, the TGI (TK-10 renal) was 31.2 µM and 38.6 µM and the TGI (SK-MEL-5 melanoma) was 28.3 µM and 32.1 µM. For the same compound, the TGI (NCI-H522 lung) was 27.8 µM and 31.8 µM, the TGI (PC-3 prostate) was 29 µM and 30 µM and the TGI (SN12C renal) was 32.9 µM and 30.6 µM. The TGI (HT29 colon) was 38.4 µM and 42.1 µM, the TGI (NCI/ADR-RES ovarian) was 53.9 µM and > 100 µM and the TGI (HS 578T breast) was 38.2 µM and 38 µM. For the same compound, the TGI (HCT-15 colon) was 31.2 µM and 33.1 µM, the TGI (SF-539 CNS) was 32 µM and 33.3 µM and the TGI (M14 melanoma) was 41.4 µM and 40.4 µM. The TGI (NCI-H460 lung) was 42.6 µM and 46.3 µM, the TGI (DU-145 prostate) was 39.1 µM and 34.2 µM and the TGI (SW-620 colon) was 40.8 µM and 48.5 µM. For the same compound, the TGI (OVCAR-5 ovarian) was 43.1 µM and 41.7 µM, the TGI (A549 NSCLC) was 45.9 µM and 44.1 µM and the TGI (HCT-116 colon) was 27.3 µM and 30.2 µM. The TGI (MDA-N) was 30.2 µM and 30.9 µM and the TGI (CAKI-1 renal) was 30.6 µM and 35.1 µM.
